These results are taken from patent US20250145606A1 (Arcus Biosciences, Inc., priority 2023, published 2025).

A value given as a limit tells only on which side of the number the result lay.

Holding throughout (conditions): biochemical, HTRF KinEASE-TK
In general terms: In TR-FRET formats the signal depends on donor and acceptor labels being close together.

The target in one experiment is c-Kit (Homo sapiens (Human), UniProt P10721). The experiment is described as follows: Inhibition of c-Kit kinase activity (HTRF KinEASE-TK). The experiment is classed as biochemical. Here is the method:
(§1) Inhibition of c-Kit, PDGFRα, PDGFRβ, CSFIR and FLT3 Kinase Activity
(§2) Compounds were evaluated to determine the potency with which they inhibit the kinase activity of the following panel of tyrosine kinases: c-Kit (SignalChem, Product #: K06-11BG), PDGFRα (SignalChem, Product #: P12-18G), PDGFRβ (SignalChem, Product #: P13-11G), CSFIR (SignalChem, Product #: C74-11G) and FLT3 (Invitrogen, Product #: PR4666C). Activity was determined as a function of phosphorylated biotinylated TK peptide generated by the transfer of phosphate from ATP as measured by the use of the HTRF KinEASE-TK assay kit (Cisbio, Product #: 62TKOPEJ). Levels of phosphorylated biotinylated TK peptide (Part 61TKOBLC of KinEASE assay kit) are quantified by its capture by phosphor-TK-Antibody-Cryptate (Part of KinEASE assay kit) and XL665-labeled Streptavidin (Part 610SAXLG of KinEASE assay kit) followed by measurement of Time-Resolved Fluorescence Resonance Energy Transfer (TR-FRET) signal. On the day of the assay, compounds were solubilized in DMSO and dispensed into a 384-well white Opti-plate (PerkinElmer, catalog #6007290) to generate a 22 point 1:2 titration. Enzyme solution was prepared for each of the tyrosine kinases in 50 mM HEPES, pH 7.4, 5 mM MgCl2 for c-Kit or 10 mM MgCl2 for FLT3, CSFIR, PDGFRa and PDGFRβ, 2 mM MnCl2, 0.01% Brij-35 and 0.01% BSA. Working enzyme concentrations were prepared for c-Kit at 2 nM (2×), PDGFRa and PDGFRß at 10 nM (2×), CSFIR at 2 nM (2×) and FLT3 at 0.4 nM (2×). Five microliters of enzyme dilution of each tyrosine kinase were added to their respective 384-well white Opti-plate pre-dispensed with compound and allowed to incubate for 1 h at rt. Utilizing the same enzyme buffer recipe, 2x substrate mixes were prepared for each enzyme as follows: For c-Kit, 1.6 μM (2×) TK substrate and 16 μM (2×) ATP (Promega, catalog #V915). For PDGFRα, 3.2 μM TK substrate and 1 μM ATP. For PDGFRβ, 3.2 μM TK substrate and 40 μM ATP. For CSFIR, […] TK substrate and 20 μM ATP. For FLT3, 3.2 μM TK substrate and 100 μM ATP. Reactions were initiated by addition of 5 μL of the respective 2x substrate mix to each well of the plates containing the respective tyrosine kinase enzymes and were allowed to proceed for 120 minutes at rt, except for FLT3, the reaction time is 45 min. Following the reaction, 10 μL of detection mix consisting of 0.2 μM (2×) of Streptavidin-XL665 and 2 μM (2×) of TK-Antibody-Cryptate prepared in detection buffer (Part 62SDBRDF of KinEASE assay kit) was added and then allowed to incubate for 60 min. The TR-FRET signal was quantified by measuring the ratio of emission at 665 nm to 620 nm after excitation at 320 nm by reading on a PerkinElmer Envision multimode reader. Compound potencies (IC50 values) were determined using a standard 4-parameter non-linear regression fit.

The target in a further experiment is PDGFRα (Homo sapiens (Human), UniProt P16234). Kind of experiment: Inhibition of PDGFRα kinase activity (HTRF KinEASE-TK). Here is the method:
as §1, §2

The target in a further experiment is PDGFRβ (Homo sapiens (Human), UniProt P09619). The experiment is described as follows: Inhibition of PDGFRβ kinase activity (HTRF KinEASE-TK). Here is the method:
as §1, §2

The target in a further experiment is CSF1R (Homo sapiens (Human), UniProt P07333). The experiment is described as follows: Inhibition of CSF1R kinase activity (HTRF KinEASE-TK). How it is done: as §1, §2
CSF1R, sequence (P07333 20-972): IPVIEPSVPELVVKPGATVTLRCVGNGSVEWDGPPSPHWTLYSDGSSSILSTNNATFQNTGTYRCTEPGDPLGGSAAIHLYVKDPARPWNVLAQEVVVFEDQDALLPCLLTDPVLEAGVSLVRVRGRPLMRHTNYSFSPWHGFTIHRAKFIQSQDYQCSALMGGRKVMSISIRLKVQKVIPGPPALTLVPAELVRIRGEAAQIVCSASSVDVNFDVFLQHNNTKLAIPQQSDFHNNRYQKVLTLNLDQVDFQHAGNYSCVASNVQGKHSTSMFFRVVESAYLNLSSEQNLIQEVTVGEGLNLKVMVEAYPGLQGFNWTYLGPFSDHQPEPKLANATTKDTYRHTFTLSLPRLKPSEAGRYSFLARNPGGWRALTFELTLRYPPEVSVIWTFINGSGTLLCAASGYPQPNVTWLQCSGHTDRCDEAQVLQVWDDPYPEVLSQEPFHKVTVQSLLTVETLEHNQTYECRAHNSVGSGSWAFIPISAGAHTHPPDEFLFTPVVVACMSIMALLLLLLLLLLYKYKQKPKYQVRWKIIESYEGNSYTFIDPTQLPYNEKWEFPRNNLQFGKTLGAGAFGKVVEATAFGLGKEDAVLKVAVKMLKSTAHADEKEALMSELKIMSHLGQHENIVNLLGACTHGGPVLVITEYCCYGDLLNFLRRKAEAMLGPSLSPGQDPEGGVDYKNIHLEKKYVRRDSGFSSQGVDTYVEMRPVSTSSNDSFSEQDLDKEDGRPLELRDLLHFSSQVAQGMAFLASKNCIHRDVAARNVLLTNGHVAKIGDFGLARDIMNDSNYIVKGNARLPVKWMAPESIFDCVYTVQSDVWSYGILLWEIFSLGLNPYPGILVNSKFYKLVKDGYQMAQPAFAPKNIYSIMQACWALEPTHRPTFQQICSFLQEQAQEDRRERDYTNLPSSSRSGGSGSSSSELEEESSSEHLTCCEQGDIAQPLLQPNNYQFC

PDGFRα, sequence (P16234 24-1089): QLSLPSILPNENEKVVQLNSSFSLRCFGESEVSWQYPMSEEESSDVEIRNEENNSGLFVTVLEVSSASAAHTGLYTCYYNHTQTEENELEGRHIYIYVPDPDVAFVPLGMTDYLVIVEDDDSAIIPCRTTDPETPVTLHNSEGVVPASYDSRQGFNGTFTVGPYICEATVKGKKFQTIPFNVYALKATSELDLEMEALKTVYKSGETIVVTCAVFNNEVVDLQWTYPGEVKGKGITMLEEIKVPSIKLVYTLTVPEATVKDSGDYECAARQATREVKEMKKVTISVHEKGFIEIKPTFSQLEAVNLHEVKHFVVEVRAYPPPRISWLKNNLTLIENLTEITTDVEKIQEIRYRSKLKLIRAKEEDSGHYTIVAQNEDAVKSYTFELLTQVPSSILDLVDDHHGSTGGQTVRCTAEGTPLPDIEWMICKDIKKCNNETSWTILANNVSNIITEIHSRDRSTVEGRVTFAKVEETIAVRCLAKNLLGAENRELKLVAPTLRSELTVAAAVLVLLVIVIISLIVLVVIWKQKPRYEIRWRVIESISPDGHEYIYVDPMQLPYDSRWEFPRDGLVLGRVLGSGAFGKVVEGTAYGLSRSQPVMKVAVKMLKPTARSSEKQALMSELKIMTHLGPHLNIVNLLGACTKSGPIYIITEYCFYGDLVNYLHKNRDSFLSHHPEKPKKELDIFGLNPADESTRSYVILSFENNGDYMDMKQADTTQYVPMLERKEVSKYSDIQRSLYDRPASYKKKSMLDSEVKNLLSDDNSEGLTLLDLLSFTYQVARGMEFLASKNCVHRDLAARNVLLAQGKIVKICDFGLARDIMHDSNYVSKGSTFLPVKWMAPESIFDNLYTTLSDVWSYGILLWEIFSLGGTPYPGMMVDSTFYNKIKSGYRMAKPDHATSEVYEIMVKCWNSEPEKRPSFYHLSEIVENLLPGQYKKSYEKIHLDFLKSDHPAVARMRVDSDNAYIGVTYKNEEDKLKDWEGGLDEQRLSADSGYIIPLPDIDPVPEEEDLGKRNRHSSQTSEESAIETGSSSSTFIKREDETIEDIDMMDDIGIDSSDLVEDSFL
PDGFRβ, sequence (P09619 33-1106): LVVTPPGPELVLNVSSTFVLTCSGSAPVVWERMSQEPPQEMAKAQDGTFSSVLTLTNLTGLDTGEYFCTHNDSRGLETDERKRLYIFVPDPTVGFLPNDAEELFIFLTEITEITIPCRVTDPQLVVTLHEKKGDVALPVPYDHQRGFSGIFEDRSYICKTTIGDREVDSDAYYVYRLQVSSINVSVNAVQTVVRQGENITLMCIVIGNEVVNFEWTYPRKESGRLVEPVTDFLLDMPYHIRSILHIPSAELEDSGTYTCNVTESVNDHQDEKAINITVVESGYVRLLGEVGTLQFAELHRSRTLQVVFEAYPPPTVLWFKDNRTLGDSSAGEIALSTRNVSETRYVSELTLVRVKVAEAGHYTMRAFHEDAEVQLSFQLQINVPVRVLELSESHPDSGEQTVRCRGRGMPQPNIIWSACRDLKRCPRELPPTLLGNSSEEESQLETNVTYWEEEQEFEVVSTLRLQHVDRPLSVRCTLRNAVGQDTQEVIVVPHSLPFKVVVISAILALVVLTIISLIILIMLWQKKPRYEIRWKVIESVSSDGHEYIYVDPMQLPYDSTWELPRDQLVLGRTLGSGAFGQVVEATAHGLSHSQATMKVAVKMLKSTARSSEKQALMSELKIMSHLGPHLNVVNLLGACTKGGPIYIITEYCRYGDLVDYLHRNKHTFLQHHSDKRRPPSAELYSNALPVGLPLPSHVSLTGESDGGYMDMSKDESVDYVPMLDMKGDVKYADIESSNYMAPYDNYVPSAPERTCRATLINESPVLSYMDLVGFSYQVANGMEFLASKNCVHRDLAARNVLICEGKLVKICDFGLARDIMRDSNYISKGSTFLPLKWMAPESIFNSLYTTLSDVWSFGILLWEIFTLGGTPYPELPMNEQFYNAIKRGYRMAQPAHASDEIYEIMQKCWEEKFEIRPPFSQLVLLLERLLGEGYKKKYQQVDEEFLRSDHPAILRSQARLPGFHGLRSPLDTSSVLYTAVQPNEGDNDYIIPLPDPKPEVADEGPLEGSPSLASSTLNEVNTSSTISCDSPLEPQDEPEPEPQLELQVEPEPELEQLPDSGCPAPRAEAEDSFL
c-Kit, sequence (P10721 26-976): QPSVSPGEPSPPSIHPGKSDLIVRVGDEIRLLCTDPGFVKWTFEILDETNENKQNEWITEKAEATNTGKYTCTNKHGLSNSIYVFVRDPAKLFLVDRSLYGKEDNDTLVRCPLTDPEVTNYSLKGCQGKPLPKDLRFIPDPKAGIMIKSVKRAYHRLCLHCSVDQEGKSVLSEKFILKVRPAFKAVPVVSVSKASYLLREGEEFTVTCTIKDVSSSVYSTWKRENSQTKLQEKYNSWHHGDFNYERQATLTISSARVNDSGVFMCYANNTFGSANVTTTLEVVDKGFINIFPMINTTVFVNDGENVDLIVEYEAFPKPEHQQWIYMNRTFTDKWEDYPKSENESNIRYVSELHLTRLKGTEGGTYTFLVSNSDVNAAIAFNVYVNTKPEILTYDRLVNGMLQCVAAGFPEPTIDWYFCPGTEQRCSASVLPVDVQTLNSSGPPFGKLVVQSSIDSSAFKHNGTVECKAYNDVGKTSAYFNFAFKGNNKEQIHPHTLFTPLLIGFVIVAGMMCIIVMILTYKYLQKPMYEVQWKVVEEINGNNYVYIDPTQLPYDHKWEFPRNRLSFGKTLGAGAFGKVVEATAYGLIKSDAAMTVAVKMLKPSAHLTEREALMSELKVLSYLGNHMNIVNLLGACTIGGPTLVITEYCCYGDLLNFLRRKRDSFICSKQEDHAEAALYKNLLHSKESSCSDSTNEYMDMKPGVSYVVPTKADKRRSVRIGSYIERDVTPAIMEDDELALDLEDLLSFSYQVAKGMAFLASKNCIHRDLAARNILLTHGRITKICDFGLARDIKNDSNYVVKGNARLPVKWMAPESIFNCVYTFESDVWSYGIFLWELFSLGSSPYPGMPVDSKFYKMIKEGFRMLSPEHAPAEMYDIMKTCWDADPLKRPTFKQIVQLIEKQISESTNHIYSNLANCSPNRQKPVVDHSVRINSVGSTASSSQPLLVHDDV

In the case of `Cc1ncc(C(=O)Nc2cc(C(=O)Nc3ccc(C(F)F)cn3)c(F)cc2C)s1` [Example 16, N-[5-[[5-(Difluoromethyl)pyridin-2-yl]carbamoyl]-4-fluoro-2-methylphenyl]-2-methyl-1,3-thiazole-5-carboxamide], the IC50 on c-Kit is less than 100 nM; on PDGFRα, more than 1000 nM; on PDGFRβ, more than 1000 nM; at CSF1R, more than 1000 nM.
With `Cc1ncc(C(=O)Nc2cc(C(=O)Nc3ccc(C(F)(F)F)nc3)c(F)cc2C)s1` [Example 26, N-[4-Fluoro-2-methyl-5-[[6-(trifluoromethyl)pyridin-3-yl]carbamoyl]phenyl]-2-methyl-1,3-thiazole-5-carboxamide], the IC50 was less than 100 nM on c-Kit, more than 1000 nM against PDGFRα, more than 1000 nM on PDGFRβ and more than 1000 nM at CSF1R.
In the case of `Cc1ncc(C(=O)Nc2cc(C(=O)Nc3ccc(C4CC4)nn3)c(F)cc2C)s1` [Example 35, N-[5-[(6-cyclopropylpyridazin-3-yl)carbamoyl]-4-fluoro-2-methylphenyl]-2-methyl-1,3-thiazole-5-carboxamide], the IC50 is less than 100 nM at c-Kit, more than 1000 nM against PDGFRα, more than 1000 nM on PDGFRβ and more than 1000 nM against CSF1R.
Turning to `COCc1ccc(NC(=O)c2cc(NC(=O)c3cnc(C)s3)c(C)cc2F)nc1` [Example 37, N-[4-fluoro-5-[[5-(methoxymethyl)pyridin-2-yl]carbamoyl]-2-methylphenyl]-2-methyl-1,3-thiazole-5-carboxamide], the IC50 on c-Kit is 100 to 1000 nM; at PDGFRα, more than 1000 nM; against PDGFRβ, more than 1000 nM; against CSF1R, more than 1000 nM.
Consider `Cc1ncc(C(=O)Nc2cc(C(=O)Nc3ccc(OCC(F)(F)F)cn3)c(F)cc2C)s1` [Example 41, N-[4-fluoro-2-methyl-5-[[5-(2,2,2-trifluoroethoxy)pyridin-2-yl]carbamoyl]phenyl]-2-methyl-1,3-thiazole-5-carboxamide], for which the IC50 was less than 100 nM at c-Kit, more than 1000 nM against PDGFRα, more than 1000 nM at PDGFRβ and more than 1000 nM on CSF1R.
`Cc1ncc(C(=O)Nc2cc(C(=O)Nc3cnc(C4CC4)nc3)c(F)cc2C)s1` [Example 42, N-[5-[(2-cyclopropylpyrimidin-5-yl)carbamoyl]-4-fluoro-2-methylphenyl]-2-methyl-1,3-thiazole-5-carboxamide]: the IC50 is less than 100 nM against c-Kit, more than 1000 nM against PDGFRα, more than 1000 nM against PDGFRβ and more than 1000 nM against CSF1R.
`Cc1ncc(C(=O)Nc2cc(C(=O)Nc3cnc(C4CC4)cn3)c(F)cc2C)s1` [Example 43, N-[5-[(5-cyclopropylpyrazin-2-yl)carbamoyl]-4-fluoro-2-methylphenyl]-2-methyl-1,3-thiazole-5-carboxamide]: the IC50 against c-Kit was less than 100 nM; on PDGFRα it was more than 1000 nM; on PDGFRβ, more than 1000 nM; on CSF1R, more than 1000 nM.
Take `COCc1ccc(NC(=O)c2cc(NC(=O)c3cnc(C)s3)c(Cl)cc2F)nc1` [Example 47, N-[2-chloro-4-fluoro-5-[[5-(methoxymethyl)pyridin-2-yl]carbamoyl]phenyl]-2-methyl-1,3-thiazole-5-carboxamide]: the IC50 is 100 to 1000 nM against c-Kit, more than 1000 nM at PDGFRα, more than 1000 nM at PDGFRβ and more than 1000 nM against CSF1R.
With `Cc1ncc(C(=O)Nc2cc(C(=O)NCCCN3CCOCC3)c(F)cc2C)s1` [Example 57, N-[4-Fluoro-2-methyl-5-(3-morpholin-4-ylpropylcarbamoyl)phenyl]-2-methyl-1,3-thiazole-5-carboxamide], the IC50 is 100 to 1000 nM on c-Kit, more than 1000 nM on PDGFRα, more than 1000 nM against PDGFRβ and more than 1000 nM against CSF1R.
Regarding `Cc1cc(F)c(C(=O)Nc2ccc(OC3CC3)cn2)cc1NC(=O)c1cnc(C(F)F)s1` [Example 59, N-[5-[(5-Cyclopropyloxypyridin-2-yl)carbamoyl]-4-fluoro-2-methylphenyl]-2-(difluoromethyl)-1,3-thiazole-5-carboxamide], the IC50 at c-Kit is less than 100 nM; against PDGFRα it was more than 1000 nM; on PDGFRβ, more than 1000 nM; against CSF1R, more than 1000 nM.
`Cc1cc(F)c(C(=O)Nc2ccc(OC3CC3)cn2)cc1NC(=O)c1cnc(C2CC2)s1` [Example 60, 2-Cyclopropyl-N-[5-[(5-cyclopropyloxypyridin-2-yl)carbamoyl]-4-fluoro-2-methylphenyl]-1,3-thiazole-5-carboxamide]: the IC50 against c-Kit is 100 to 1000 nM; against PDGFRα it was more than 1000 nM; on PDGFRβ, more than 1000 nM; against CSF1R, more than 1000 nM.
`Cc1ncc(C(=O)Nc2cc(C(=O)Nc3ccc(OC4CC4)c(C)n3)c(F)cc2C)s1` [Example 62, N-[5-[(5-Cyclopropyloxy-6-methylpyridin-2-yl)carbamoyl]-4-fluoro-2-methylphenyl]-2-methyl-1,3-thiazole-5-carboxamide]: the IC50 against c-Kit is less than 100 nM; against PDGFRα it was more than 1000 nM; against PDGFRβ, more than 1000 nM; at CSF1R it was more than 1000 nM.
Turning to `Cc1ncc(C(=O)Nc2cc(C(=O)Nc3ccc(OCC4CC4)cn3)c(F)cc2C)s1` [Example 65, N-[5-[[5-(cyclopropylmethoxy)pyridin-2-yl]carbamoyl]-4-fluoro-2-methylphenyl]-2-methyl-1,3-thiazole-5-carboxamide], the IC50 against c-Kit is less than 100 nM; on PDGFRα, more than 1000 nM; at PDGFRβ it was more than 1000 nM; against CSF1R, more than 1000 nM.
`Cc1ncc(C(=O)Nc2cc(C(=O)NCC3(F)CCC3)c(F)cc2C)s1` [Example 68, N-[4-Fluoro-5-[(1-fluorocyclobutyl)methylcarbamoyl]-2-methylphenyl]-2-methyl-1,3-thiazole-5-carboxamide]: the IC50 on c-Kit is 100 to 1000 nM; on PDGFRα it was more than 1000 nM; on PDGFRβ, more than 1000 nM; against CSF1R, more than 1000 nM.
`Cc1ncc(C(=O)Nc2cc(C(=O)Nc3ccn(C(F)F)n3)c(F)cc2C)s1` [Example 69, N-[5-[[1-(difluoromethyl)pyrazol-3-yl]carbamoyl]-4-fluoro-2-methylphenyl]-2-methyl-1,3-thiazole-5-carboxamide]: the IC50 against c-Kit was 100 to 1000 nM; against PDGFRα, more than 1000 nM; against PDGFRβ it was more than 1000 nM; at CSF1R, more than 1000 nM.
Consider `Cc1ncc(C(=O)Nc2cc(C(=O)NCc3ccn(C(C)C)n3)c(F)cc2C)s1` [Example 79, N-[4-fluoro-2-methyl-5-[(1-propan-2-ylpyrazol-3-yl)methylcarbamoyl]phenyl]-2-methyl-1,3-thiazole-5-carboxamide], for which the IC50 against c-Kit is less than 100 nM; against PDGFRα, more than 1000 nM; at PDGFRβ, more than 1000 nM; at CSF1R, more than 1000 nM.
Turning to `Cc1cc(F)c(C(=O)Nc2ccc(OC3CC3)cn2)cc1NC(=O)c1cnc(NC(=O)OC2CCC2)s1` [Example 106], the IC50 against c-Kit was less than 100 nM; on PDGFRα it was more than 1000 nM; at PDGFRβ, 100 to 1000 nM; against CSF1R, more than 1000 nM.
Consider `Cc1cc(F)c(C(=O)Nc2ccc(OC3CC3)cn2)cc1NC(=O)c1cnc(NC(=O)[C@@H]2CCOC2)s1` [Example 107, N-[5-[(5-cyclopropyloxypyridin-2-yl)carbamoyl]-4-fluoro-2-methylphenyl]-2-[[(3R)-oxolane-3-carbonyl]amino]-1,3-thiazole-5-carboxamide], for which the IC50 is less than 100 nM at c-Kit, more than 1000 nM against PDGFRα, 100 to 1000 nM against PDGFRβ and more than 1000 nM against CSF1R.

For orientation: IC50 means the point on the concentration scale where inhibition reaches its midpoint. Higher therefore signals weaker potency.
